Data as given in patent US11952364B2, “TRK inhibitors useful as anticancer drugs” (TYLIGAND BIOSCIENCE (SHANGHAI) LIMITED, priority 2018, dated 2024).

Each molecule was assayed on Ba/F3 ETV6-NTRK2-G639R cells (assay: Proliferation of Ba/F3 ETV6-NTRK2-G639R cells (CellTiter-Glo)). Conditions: Mus musculus, BaF3; Table 6; 72 hours.
Type: cell-based
Text: Ba/F3 ETV6-NTRK2-G639R is a stable transgenic cell line constructed by KYinno Biotechnology Co., Ltd. on mouse primary B cell Ba/F3 wherein NTRK2 is highly expressed with a mutation of G at position 639 to R, and fused with ETV6 to form ETV6-NTRK2. • [Test method]: Promega's CellTiter-Glo® Luminescent Cell Viability Assay kit was used to evaluate the inhibitory activity of the compounds on the proliferation of Ba/F3 ETV6-NTRK2-G639R cells. • [Instrument]: Spectramax M3 multifunctional microplate reader from Molecular Devices. • [Test materials]: Ba/F3 ETV6-NTRK2-G639R cell line (constructed by KYinno Biotechnology Co., Ltd. (Beijing)), 96-well transparent flat-bottomed black-walled cell culture plate (Corning, catalog #3603), RPMI-1640 media (GE, cat #SH30027.01), fetal bovine serum FBS (Thermo Fisher, cat #10099-141), CellTiter-Glo® Luminescent Cell Viability Assay kit (Promega, cat #G7572), PBS (Solarbio, cat #P1020), DMSO (Sigma, cat #D2650). • [Experimental procedure]: When resuscitating Ba/F3 ETV6-NTRK2-G639R cells, the freezing tube was quickly shaken in a 37° C. water bath to melt within 1 minute. The thawed cell suspension was mixed uniformly with RPMI1640 medium containing 10% FBS, centrifuged at 1000 rpm for 5 minutes, and the supernatant discarded. 5 mL of complete medium (RPMI1640 medium with 10% FBS) was taken to resuspend the cell pellets, charged into a cell culture flask with a bottom area of 25 cm^2, and incubated in a cell incubator at 37° C., 95% humidity and 5% CO2. Cells were allowed to passage when the number of cells reached about 10^6 cells/mL. For cell passage, the old cell suspension was directly pipetted evenly, 1/5 of the cell suspension was kept, 4 mL of new complete medium was added, after pipetting evenly, the cell flask was placed in the cell incubator for further culturing. Cell plating was performed when the number of cells reached about 10^6 cells/mL again. For cell plating, 1/5 of the cell suspension was kept for further culturing as in the cell passage method, and the remaining 4/5 of the cell suspension was placed in a 15 mL centrifuge tube, detected for cell viability by Trypan blue exclusion method to ensure that cell viability was above 90%. A cell suspension with a density of 5.56×10^4 viable cells/mL was prepared with complete medium, and 90 μL of such cell suspension was added to a 96-well cell culture plate to obtain the cell density of 5000 viable cells/mL in the cell culture plate. A control group containing no cells, no compound and only complete medium (i.e. culture medium control) and a control group containing no compound but containing cells (i.e. cell control) were set. The cell plate was placed in a cell incubator overnight. The 10 mM compound stock solution in DMSO was first serially diluted with DMSO at a dilution factor of 3.16 times, to obtain 9 concentrations, and the 10th concentration was set as DMSO control without compound. Then, PBS was used to dilute the DMSO solutions of compounds of different concentrations, at a dilution factor of 100 times, so that the DMSO concentration in the compound solution of each concentration was 1%. Finally, 10 μL of each of the above solutions was added to the corresponding cell culture plate, so that the initial compound concentration was 10 μM, with the remaining concentrations being successively diluted at a dilution factor of 3.16 times, and the DMSO content in the cell culture plate was 0.1%. The cell plate was placed in a cell incubator and cultured for 72 hours. For endpoint detection, the CellTiter-Glo reagent was melted, and the cell plate was moved to room temperature to equilibrate for 30 minutes, added with 100 μL of CellTiter-Glo for each well, and shaken on an orbital shaker for 5 minutes to fully lyse the cells. The plate was kept at room temperature for 20 minutes to stabilize the luminescence signal, and the luminescence value of each well was scanned with a multi-functional microplate reader at full wavelength. • [Test samples] […]

CCc1ccc(C(=O)Nc2ccc(Oc3cc4cnn(C)c4cc3-c3cn[nH]c3)c(F)c2)c(=O)n1-c1ccc(F)cc1 [Example 5, N-(3-fluoro-4-(1-methyl-6-(1H-pyrazol-4-yl)-1H-indazol-5-yloxy)phenyl)-1-(4-fluorophenyl)-6-ethyl-2-oxo-1,2-dihydropyridine-3-carboxamide] and Cc1ccc(C(=O)Nc2ccc(Oc3cc4cnn(C)c4cc3-c3cn[nH]c3)c(F)c2)c(=O)n1-c1ccc(F)cc1 [Merestinib, reference compound] are within 1.5-fold of each other in IC50: 2.69 µM for the first, 3.04 µM for the second.

Cn1ncc2cc(Oc3ccc(NC(=O)c4ccc(C(F)(F)F)n(-c5ccc(F)cc5)c4=O)cc3F)c(-c3cn[nH]c3)cc21 [Example 1, N-(3-fluoro-4-(1-methyl-6-(1H-pyrazol-4-yl)-1H-indazol-5-yloxy)phenyl)-1-(4-fluorophenyl)-6-trifluoromethyl-2-oxo-1,2-dihydmpyridine-3-carboxamide monomethanesulfonate] and CC(C)c1ccc(C(=O)Nc2ccc(Oc3cc4cnn(C)c4cc3-c3cn[nH]c3)c(F)c2)c(=O)n1-c1ccc(F)cc1 [Example 6, N-(3-fluoro-4-(1-methyl-6-(1H-pyrazol-4-yl)-1H-indazol-5-yloxy)phenyl)-1-(4-fluorophenyl)-6-isopropyl-2-oxo-1,2-dihydropyridine-3-carboxamide] are within 1.5-fold of each other in IC50: 3.12 µM for the first, 2.79 µM for the second.

Going from O=C(Nc1cnn2ccc(N3CCC[C@@H]3c3cc(F)ccc3F)nc12)N1CC[C@H](O)C1 [LOXO-101, Larotrectinib, reference compound] to Cn1ncc2cc(Oc3ccc(NC(=O)c4ccc(C5CC5)n(-c5ccc(F)cc5)c4=O)cc3F)c(-c3cn[nH]c3)cc21 [Example 2, N-(3-fluoro-4-(1-methyl-6-(1H-pyrazol-4-yl)-1H-indazol-5-yloxy)phenyl)-1-(4-fluorophenyl)-6-cyclopropyl-2-oxo-1,2-dihydmpyridine-3-carboxamide], the IC50 falls from > 10 µM to 1.88 µM. The second is the more potent here.

First: Cc1ccc(C(=O)Nc2ccc(Oc3cc4cnn(C(C)C)c4cc3-c3cn[nH]c3)c(F)c2)c(=O)n1-c1ccc(F)cc1 [Example 4, N-(3-fluoro-4-(1-isopropyl-6-(1H-pyrazol-4-yl)-1H-indazol-5-yloxy)phenyl)-1-(4-fluorophenyl)-6-methyl-2-oxo-1,2-dihydmpyridine-3-carboxamide]
Second: CCn1ncc2cc(Oc3ccc(NC(=O)c4ccc(C)n(-c5ccc(F)cc5)c4=O)cc3F)c(-c3cn[nH]c3)cc21 [Example 3, N-(3-fluoro-4-(1-ethyl-6-(1H-pyrazol-4-yl)-1H-indazol-5-yloxy)phenyl)-1-(4-fluorophenyl)-6-methyl-2-oxo-1,2-dihydmpyridine-3-carboxamide]
The IC50 of the first is higher: > 10 µM for the first, 9.87 µM for the second.
